Assay results from the supplement of paper PMC12463676, “Small-molecule dissolution of stress granules by redox modulation benefits ALS models” (Nature Chemical Biology, 2025).

Experiments:
lipoamide = compound: NC(=O)CCCCC1CCSS1 [lipoamide]; assay: thermal stability z-score vs DMSO; higher = more thermally stabilized by treatment; details: HeLa, lipoamide concentration 100 µM
Experimental: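 Cellular thermal proteome profiling in HeLa cells. Cells were treated with 100 µM lipoamide for 1 h, with or without 1 mM arsenate for a further 1 h, then heated to ten temperatures (37-66.3 °C), and soluble protein was quantified by TMT mass spectrometry relative to 0.1% DMSO controls. The thermal stability score (sum of log2 fold changes minus the abundance score) was transformed to a z-score; mean of n = 3 experiments.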

potassium arsenate = compound: O=[As]([O-])(O)O.[K+] [potassium arsenate]; assay: as above; details: HeLa; arsenate concentration 1 mM
Experimental: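 Cellular thermal proteome profiling in HeLa cells treated with 1 mM arsenate for 1 h (DMSO pretreatment), heated to ten temperatures (37-66.3 °C). Soluble protein was quantified by TMT mass spectrometry relative to DMSO controls; the thermal stability score was transformed to a z-score; mean of n = 3 experiments.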

[1] = arsenate co-treatment: 1 mM arsenate 1 h
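Further: each temperature applied for 3 min, abundance score taken as mean log2 fold change at the two lowest temperatures, z-score obtained by mean subtraction and division by SD.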

MTA2 (UniProt O94776)
thermal stability z-score (lipoamide; [1]): 0.669 | thermal stability z-score (lipoamide; arsenate co-treatment: none): 0.591 | thermal stability z-score (potassium arsenate): -0.245

THTPA (UniProt Q9BU02)
thermal stability z-score (lipoamide; [1]): 0.32 | thermal stability z-score (lipoamide; arsenate co-treatment: none): -0.0368 | thermal stability z-score (potassium arsenate): 0.53

GDA (UniProt Q9Y2T3)
UniProt Q9Y2T3, sequence (Q9Y2T3 whole entry): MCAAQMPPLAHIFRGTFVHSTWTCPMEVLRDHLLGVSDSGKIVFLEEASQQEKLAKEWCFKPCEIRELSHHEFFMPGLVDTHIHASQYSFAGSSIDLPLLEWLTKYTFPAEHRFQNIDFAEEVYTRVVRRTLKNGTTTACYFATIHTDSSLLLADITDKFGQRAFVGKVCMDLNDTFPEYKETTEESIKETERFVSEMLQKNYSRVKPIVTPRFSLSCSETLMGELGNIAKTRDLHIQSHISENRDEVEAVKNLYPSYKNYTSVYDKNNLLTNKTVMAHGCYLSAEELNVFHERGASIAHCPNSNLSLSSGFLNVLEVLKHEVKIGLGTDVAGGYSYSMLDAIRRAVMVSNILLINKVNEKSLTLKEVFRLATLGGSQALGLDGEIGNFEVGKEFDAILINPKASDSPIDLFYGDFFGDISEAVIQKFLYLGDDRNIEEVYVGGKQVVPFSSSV
thermal stability z-score (lipoamide; [1]): 0.244 | thermal stability z-score (lipoamide; arsenate co-treatment: none): 0.292 | thermal stability z-score (potassium arsenate): 0.0168

LANCL2 (UniProt Q9NS86)
thermal stability z-score (lipoamide; [1]): -1.13 | thermal stability z-score (lipoamide; arsenate co-treatment: none): -0.454 | thermal stability z-score (potassium arsenate): -0.393

MYADM (UniProt Q96S97)
thermal stability z-score (lipoamide; [1]): 0.0599 | thermal stability z-score (lipoamide; arsenate co-treatment: none): 0.353 | thermal stability z-score (potassium arsenate): 1.34

HNRNPF (UniProt P52597)
thermal stability z-score (lipoamide; [1]): -0.401 | thermal stability z-score (lipoamide; arsenate co-treatment: none): -0.136 | thermal stability z-score (potassium arsenate): -0.208

RNF4 (UniProt P78317)
thermal stability z-score (lipoamide; [1]): -1.23 | thermal stability z-score (lipoamide; arsenate co-treatment: none): -0.848 | thermal stability z-score (potassium arsenate): -0.192

GPATCH2 (UniProt Q9NW75)
thermal stability z-score (lipoamide; [1]): -0.115 | thermal stability z-score (lipoamide; arsenate co-treatment: none): 0.00549 | thermal stability z-score (potassium arsenate): 0.239

LYPLA2 (UniProt O95372)
thermal stability z-score (lipoamide; [1]): 0.141 | thermal stability z-score (lipoamide; arsenate co-treatment: none): 0.194 | thermal stability z-score (potassium arsenate): 0.209

PGK1 (UniProt P00558)
thermal stability z-score (lipoamide; [1]): 0.239 | thermal stability z-score (lipoamide; arsenate co-treatment: none): 0.256 | thermal stability z-score (potassium arsenate): -0.469

ITPR2 (UniProt Q14571)
thermal stability z-score (lipoamide; [1]): -0.269 | thermal stability z-score (lipoamide; arsenate co-treatment: none): -0.265 | thermal stability z-score (potassium arsenate): -0.238

HMGCL (UniProt P35914)
thermal stability z-score (lipoamide; [1]): 1.01 | thermal stability z-score (lipoamide; arsenate co-treatment: none): 0.651 | thermal stability z-score (potassium arsenate): 5.41

BAIAP2 (UniProt Q9UQB8)
thermal stability z-score (lipoamide; [1]): 0.142 | thermal stability z-score (lipoamide; arsenate co-treatment: none): 0.0757 | thermal stability z-score (potassium arsenate): -0.138

RPUSD2 (UniProt Q8IZ73)
UniProt Q8IZ73, sequence (Q8IZ73 whole entry): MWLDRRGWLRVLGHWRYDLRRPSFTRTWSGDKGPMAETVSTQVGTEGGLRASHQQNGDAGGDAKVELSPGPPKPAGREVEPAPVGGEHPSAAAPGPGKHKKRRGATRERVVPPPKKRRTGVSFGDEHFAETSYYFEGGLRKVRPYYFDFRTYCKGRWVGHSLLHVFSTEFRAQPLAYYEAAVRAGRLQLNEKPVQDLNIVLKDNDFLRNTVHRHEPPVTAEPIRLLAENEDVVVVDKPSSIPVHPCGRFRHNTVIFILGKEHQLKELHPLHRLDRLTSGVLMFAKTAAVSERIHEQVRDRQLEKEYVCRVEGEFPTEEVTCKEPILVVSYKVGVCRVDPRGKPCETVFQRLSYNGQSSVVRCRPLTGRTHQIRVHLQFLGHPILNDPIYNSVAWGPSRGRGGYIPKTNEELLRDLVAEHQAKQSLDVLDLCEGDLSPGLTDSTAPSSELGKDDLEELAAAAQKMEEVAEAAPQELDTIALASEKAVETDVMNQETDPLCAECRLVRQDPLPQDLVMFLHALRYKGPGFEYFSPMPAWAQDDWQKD
thermal stability z-score (lipoamide; [1]): -0.528 | thermal stability z-score (lipoamide; arsenate co-treatment: none): 0.461 | thermal stability z-score (potassium arsenate): 0.29

ZNF217 (UniProt O75362)
thermal stability z-score (lipoamide; [1]): -0.058 | thermal stability z-score (lipoamide; arsenate co-treatment: none): 0.343 | thermal stability z-score (potassium arsenate): -0.589

C1GALT1 (UniProt Q9NS00)
thermal stability z-score (lipoamide; [1]): -0.00802 | thermal stability z-score (lipoamide; arsenate co-treatment: none): -0.575 | thermal stability z-score (potassium arsenate): -0.0716

TRIM38 (UniProt O00635)
thermal stability z-score (lipoamide; [1]): -0.0725 | thermal stability z-score (lipoamide; arsenate co-treatment: none): -0.0917 | thermal stability z-score (potassium arsenate): -0.447

CHEK2 (UniProt O96017)
UniProt O96017, sequence (O96017 whole entry): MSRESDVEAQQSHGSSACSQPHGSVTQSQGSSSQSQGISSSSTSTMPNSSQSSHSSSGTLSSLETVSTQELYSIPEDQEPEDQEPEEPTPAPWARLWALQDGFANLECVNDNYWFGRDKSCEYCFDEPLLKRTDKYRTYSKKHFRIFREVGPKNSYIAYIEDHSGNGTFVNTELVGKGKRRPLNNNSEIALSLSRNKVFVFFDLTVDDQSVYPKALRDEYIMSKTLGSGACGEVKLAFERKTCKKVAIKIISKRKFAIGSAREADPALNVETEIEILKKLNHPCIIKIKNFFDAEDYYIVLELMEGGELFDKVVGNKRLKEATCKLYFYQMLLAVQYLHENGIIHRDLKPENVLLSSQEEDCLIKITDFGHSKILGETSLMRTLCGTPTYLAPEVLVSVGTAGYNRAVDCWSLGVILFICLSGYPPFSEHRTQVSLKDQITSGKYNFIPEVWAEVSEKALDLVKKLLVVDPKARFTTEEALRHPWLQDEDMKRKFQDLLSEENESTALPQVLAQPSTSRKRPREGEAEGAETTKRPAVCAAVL
thermal stability z-score (lipoamide; [1]): -0.0379 | thermal stability z-score (lipoamide; arsenate co-treatment: none): -0.222 | thermal stability z-score (potassium arsenate): -0.161

CASP1 (UniProt P29466)
UniProt P29466, sequence (P29466 whole entry): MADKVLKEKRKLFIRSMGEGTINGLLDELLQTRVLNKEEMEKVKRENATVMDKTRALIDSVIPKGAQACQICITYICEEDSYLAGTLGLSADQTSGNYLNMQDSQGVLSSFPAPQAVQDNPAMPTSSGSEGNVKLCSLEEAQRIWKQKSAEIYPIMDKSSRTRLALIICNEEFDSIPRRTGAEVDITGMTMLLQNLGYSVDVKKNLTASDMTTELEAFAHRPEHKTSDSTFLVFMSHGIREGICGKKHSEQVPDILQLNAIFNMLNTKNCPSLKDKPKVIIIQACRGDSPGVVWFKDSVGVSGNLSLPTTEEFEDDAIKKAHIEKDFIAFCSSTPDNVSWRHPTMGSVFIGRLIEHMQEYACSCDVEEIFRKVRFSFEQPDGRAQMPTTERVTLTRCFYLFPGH
thermal stability z-score (lipoamide; [1]): -1.23 | thermal stability z-score (lipoamide; arsenate co-treatment: none): -0.846 | thermal stability z-score (potassium arsenate): -0.416

TUT1 (UniProt Q9H6E5)
thermal stability z-score (lipoamide; [1]): 0.0998 | thermal stability z-score (lipoamide; arsenate co-treatment: none): -0.00913 | thermal stability z-score (potassium arsenate): -0.479

OLR1 (UniProt P78380)
thermal stability z-score (lipoamide; [1]): -0.828 | thermal stability z-score (lipoamide; arsenate co-treatment: none): -0.797 | thermal stability z-score (potassium arsenate): 0.938

ZC2HC1A (UniProt Q96GY0)
thermal stability z-score (lipoamide; [1]): 0.178 | thermal stability z-score (lipoamide; arsenate co-treatment: none): -0.306 | thermal stability z-score (potassium arsenate): -1.15

GCN1 (UniProt Q92616)
thermal stability z-score (lipoamide; [1]): -0.244 | thermal stability z-score (lipoamide; arsenate co-treatment: none): 0.292 | thermal stability z-score (potassium arsenate): 0.522

CHMP4C (UniProt Q96CF2)
thermal stability z-score (lipoamide; [1]): -0.0236 | thermal stability z-score (lipoamide; arsenate co-treatment: none): -0.694 | thermal stability z-score (potassium arsenate): -0.789

PPFIBP1 (UniProt Q86W92)
thermal stability z-score (lipoamide; [1]): -0.215 | thermal stability z-score (lipoamide; arsenate co-treatment: none): 0.229 | thermal stability z-score (potassium arsenate): 0.32

NOP9 (UniProt Q86U38)
thermal stability z-score (lipoamide; [1]): 0.182 | thermal stability z-score (lipoamide; arsenate co-treatment: none): 0.121 | thermal stability z-score (potassium arsenate): -0.372

LSM12 (UniProt Q3MHD2)
UniProt Q3MHD2, sequence (Q3MHD2 whole entry): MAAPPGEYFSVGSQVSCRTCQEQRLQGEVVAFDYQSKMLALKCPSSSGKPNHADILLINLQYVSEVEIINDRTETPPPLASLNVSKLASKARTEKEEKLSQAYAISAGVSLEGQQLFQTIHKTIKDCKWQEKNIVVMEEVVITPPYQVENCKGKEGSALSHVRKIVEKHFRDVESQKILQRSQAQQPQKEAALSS
thermal stability z-score (lipoamide; [1]): -0.205 | thermal stability z-score (lipoamide; arsenate co-treatment: none): 0.447 | thermal stability z-score (potassium arsenate): -0.27

MLKL (UniProt Q8NB16)
thermal stability z-score (lipoamide; [1]): 0.561 | thermal stability z-score (lipoamide; arsenate co-treatment: none): 0.379 | thermal stability z-score (potassium arsenate): -1.45

DPYD (UniProt Q12882)
thermal stability z-score (lipoamide; [1]): 0.0898 | thermal stability z-score (lipoamide; arsenate co-treatment: none): 0.178 | thermal stability z-score (potassium arsenate): 0.0708

NIPSNAP1 (UniProt Q9BPW8)
UniProt Q9BPW8, sequence (Q9BPW8 whole entry): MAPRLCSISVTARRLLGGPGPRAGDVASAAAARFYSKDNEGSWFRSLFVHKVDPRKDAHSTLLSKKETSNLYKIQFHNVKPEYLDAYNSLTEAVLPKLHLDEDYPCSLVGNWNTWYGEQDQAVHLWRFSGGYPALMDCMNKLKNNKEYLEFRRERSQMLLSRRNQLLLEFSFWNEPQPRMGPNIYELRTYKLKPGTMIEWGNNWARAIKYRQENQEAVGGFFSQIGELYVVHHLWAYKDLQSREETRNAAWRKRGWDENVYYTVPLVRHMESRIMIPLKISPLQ
thermal stability z-score (lipoamide; [1]): -1.48 | thermal stability z-score (lipoamide; arsenate co-treatment: none): -0.204 | thermal stability z-score (potassium arsenate): -0.872

TCP1 (UniProt P17987)
thermal stability z-score (lipoamide; [1]): -0.0358 | thermal stability z-score (lipoamide; arsenate co-treatment: none): -0.0779 | thermal stability z-score (potassium arsenate): -0.229

NUDT19 (UniProt A8MXV4)
thermal stability z-score (lipoamide; [1]): -0.133 | thermal stability z-score (lipoamide; arsenate co-treatment: none): 0.126 | thermal stability z-score (potassium arsenate): -0.208

TTPAL (UniProt Q9BTX7)
thermal stability z-score (lipoamide; [1]): 0.0476 | thermal stability z-score (lipoamide; arsenate co-treatment: none): 0.0717 | thermal stability z-score (potassium arsenate): 0.594

LAMC1 (UniProt P11047)
UniProt P11047, sequence (P11047 whole entry): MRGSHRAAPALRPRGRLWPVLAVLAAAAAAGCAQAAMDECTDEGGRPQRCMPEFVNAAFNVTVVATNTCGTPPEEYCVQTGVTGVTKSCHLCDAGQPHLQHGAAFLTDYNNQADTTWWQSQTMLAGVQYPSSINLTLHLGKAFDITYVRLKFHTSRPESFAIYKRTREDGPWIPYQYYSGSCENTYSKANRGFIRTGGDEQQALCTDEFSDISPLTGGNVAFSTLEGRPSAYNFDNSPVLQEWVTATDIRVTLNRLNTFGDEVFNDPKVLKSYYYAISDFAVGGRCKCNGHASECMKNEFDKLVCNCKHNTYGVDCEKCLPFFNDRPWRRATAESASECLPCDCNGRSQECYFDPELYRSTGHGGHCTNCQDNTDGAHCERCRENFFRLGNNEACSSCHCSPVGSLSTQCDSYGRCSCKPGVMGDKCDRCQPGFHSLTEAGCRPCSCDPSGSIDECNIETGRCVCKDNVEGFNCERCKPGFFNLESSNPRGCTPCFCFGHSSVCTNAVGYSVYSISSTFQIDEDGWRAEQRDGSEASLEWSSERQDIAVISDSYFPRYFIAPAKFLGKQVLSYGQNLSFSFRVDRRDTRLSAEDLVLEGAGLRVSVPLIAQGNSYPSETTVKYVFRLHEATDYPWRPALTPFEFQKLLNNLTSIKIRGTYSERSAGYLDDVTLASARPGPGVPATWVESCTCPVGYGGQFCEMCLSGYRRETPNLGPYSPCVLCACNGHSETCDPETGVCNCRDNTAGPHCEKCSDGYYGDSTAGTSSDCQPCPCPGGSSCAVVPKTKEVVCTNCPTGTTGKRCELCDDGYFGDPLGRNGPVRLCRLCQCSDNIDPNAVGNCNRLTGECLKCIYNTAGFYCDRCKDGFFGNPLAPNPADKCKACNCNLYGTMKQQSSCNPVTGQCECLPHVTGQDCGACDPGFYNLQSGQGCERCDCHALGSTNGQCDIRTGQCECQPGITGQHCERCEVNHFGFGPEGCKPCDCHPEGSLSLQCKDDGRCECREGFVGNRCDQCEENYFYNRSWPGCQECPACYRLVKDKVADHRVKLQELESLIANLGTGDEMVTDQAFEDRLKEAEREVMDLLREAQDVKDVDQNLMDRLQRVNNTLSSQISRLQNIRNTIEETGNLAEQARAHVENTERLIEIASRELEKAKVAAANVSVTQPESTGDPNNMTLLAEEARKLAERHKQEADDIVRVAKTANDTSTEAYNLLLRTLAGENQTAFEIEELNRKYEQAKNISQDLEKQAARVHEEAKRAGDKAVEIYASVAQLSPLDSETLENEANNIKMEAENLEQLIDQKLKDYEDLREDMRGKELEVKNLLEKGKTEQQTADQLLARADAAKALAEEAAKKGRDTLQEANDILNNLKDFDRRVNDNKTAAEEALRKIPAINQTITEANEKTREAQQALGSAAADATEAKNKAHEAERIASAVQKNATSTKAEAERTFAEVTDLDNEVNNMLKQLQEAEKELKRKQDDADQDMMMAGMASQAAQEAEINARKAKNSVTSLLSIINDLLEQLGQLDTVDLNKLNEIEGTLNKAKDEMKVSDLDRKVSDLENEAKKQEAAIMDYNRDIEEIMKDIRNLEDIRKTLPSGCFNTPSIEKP
thermal stability z-score (lipoamide; [1]): -2.97 | thermal stability z-score (lipoamide; arsenate co-treatment: none): -2.6 | thermal stability z-score (potassium arsenate): 1.15

MSI2 (UniProt Q96DH6)
thermal stability z-score (lipoamide; [1]): 0.43 | thermal stability z-score (lipoamide; arsenate co-treatment: none): 0.136 | thermal stability z-score (potassium arsenate): 0.082

RXRB (UniProt P28702)
thermal stability z-score (lipoamide; [1]): 0.117 | thermal stability z-score (lipoamide; arsenate co-treatment: none): 0.096 | thermal stability z-score (potassium arsenate): -0.458

SNRNP40 (UniProt Q96DI7)
thermal stability z-score (lipoamide; [1]): 0.383 | thermal stability z-score (lipoamide; arsenate co-treatment: none): -0.0333 | thermal stability z-score (potassium arsenate): -0.213

UBE2G2 (UniProt P60604)
thermal stability z-score (lipoamide; [1]): 0.327 | thermal stability z-score (lipoamide; arsenate co-treatment: none): 0.813 | thermal stability z-score (potassium arsenate): 0.643

HNRNPUL1 (UniProt Q9BUJ2)
thermal stability z-score (lipoamide; [1]): 0.162 | thermal stability z-score (lipoamide; arsenate co-treatment: none): 0.44 | thermal stability z-score (potassium arsenate): 0.283

DAP (UniProt P51397)
UniProt P51397, sequence (P51397 whole entry): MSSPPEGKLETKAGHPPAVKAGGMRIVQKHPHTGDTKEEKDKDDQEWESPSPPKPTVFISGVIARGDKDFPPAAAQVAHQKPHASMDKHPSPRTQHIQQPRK
thermal stability z-score (lipoamide; [1]): 1.03 | thermal stability z-score (lipoamide; arsenate co-treatment: none): 0.89 | thermal stability z-score (potassium arsenate): -0.0556

YOD1 (UniProt Q5VVQ6)
thermal stability z-score (lipoamide; [1]): -0.00898 | thermal stability z-score (lipoamide; arsenate co-treatment: none): -0.121 | thermal stability z-score (potassium arsenate): 0.0186

IREB2 (UniProt P48200)
thermal stability z-score (lipoamide; [1]): -0.0142 | thermal stability z-score (lipoamide; arsenate co-treatment: none): 0.0771 | thermal stability z-score (potassium arsenate): -0.386

PIK3CA (UniProt P42336)
thermal stability z-score (lipoamide; [1]): -0.275 | thermal stability z-score (lipoamide; arsenate co-treatment: none): -0.149 | thermal stability z-score (potassium arsenate): -0.45

RAPGEF2 (UniProt Q9Y4G8)
thermal stability z-score (lipoamide; [1]): 0.309 | thermal stability z-score (lipoamide; arsenate co-treatment: none): -0.293 | thermal stability z-score (potassium arsenate): -0.388

SP3 (UniProt Q02447)
thermal stability z-score (lipoamide; [1]): -0.177 | thermal stability z-score (lipoamide; arsenate co-treatment: none): -0.427 | thermal stability z-score (potassium arsenate): -0.584

GFER (UniProt P55789)
UniProt P55789, sequence (P55789 whole entry, looked up): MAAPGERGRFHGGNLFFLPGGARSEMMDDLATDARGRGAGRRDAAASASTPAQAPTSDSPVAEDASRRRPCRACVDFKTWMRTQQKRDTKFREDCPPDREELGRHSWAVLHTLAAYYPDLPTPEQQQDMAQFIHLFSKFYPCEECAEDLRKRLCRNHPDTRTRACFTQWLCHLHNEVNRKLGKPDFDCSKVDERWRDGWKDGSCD
thermal stability z-score (lipoamide; [1]): 0.239 | thermal stability z-score (lipoamide; arsenate co-treatment: none): 0.231 | thermal stability z-score (potassium arsenate): 0.816

LMO4 (UniProt P61968)
thermal stability z-score (lipoamide; [1]): 0.548 | thermal stability z-score (lipoamide; arsenate co-treatment: none): 0.0182 | thermal stability z-score (potassium arsenate): 0.164

DHDDS (UniProt Q86SQ9)
thermal stability z-score (lipoamide; [1]): 1.01 | thermal stability z-score (lipoamide; arsenate co-treatment: none): 0.391 | thermal stability z-score (potassium arsenate): 0.205

BRD4 (UniProt O60885)
thermal stability z-score (lipoamide; [1]): 0.496 | thermal stability z-score (lipoamide; arsenate co-treatment: none): 0.462 | thermal stability z-score (potassium arsenate): -0.724

TBCB (UniProt Q99426)
UniProt Q99426, sequence (Q99426 whole entry): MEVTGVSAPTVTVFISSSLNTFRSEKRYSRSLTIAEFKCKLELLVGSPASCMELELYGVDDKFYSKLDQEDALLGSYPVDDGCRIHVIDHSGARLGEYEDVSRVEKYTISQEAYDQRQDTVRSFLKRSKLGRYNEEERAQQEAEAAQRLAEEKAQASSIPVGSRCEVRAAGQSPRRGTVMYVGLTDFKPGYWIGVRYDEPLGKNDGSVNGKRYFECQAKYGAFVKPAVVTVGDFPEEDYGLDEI
thermal stability z-score (lipoamide; [1]): 0.475 | thermal stability z-score (lipoamide; arsenate co-treatment: none): -0.253 | thermal stability z-score (potassium arsenate): -1.55

SEH1L (UniProt Q96EE3)
UniProt Q96EE3, sequence (Q96EE3 whole entry): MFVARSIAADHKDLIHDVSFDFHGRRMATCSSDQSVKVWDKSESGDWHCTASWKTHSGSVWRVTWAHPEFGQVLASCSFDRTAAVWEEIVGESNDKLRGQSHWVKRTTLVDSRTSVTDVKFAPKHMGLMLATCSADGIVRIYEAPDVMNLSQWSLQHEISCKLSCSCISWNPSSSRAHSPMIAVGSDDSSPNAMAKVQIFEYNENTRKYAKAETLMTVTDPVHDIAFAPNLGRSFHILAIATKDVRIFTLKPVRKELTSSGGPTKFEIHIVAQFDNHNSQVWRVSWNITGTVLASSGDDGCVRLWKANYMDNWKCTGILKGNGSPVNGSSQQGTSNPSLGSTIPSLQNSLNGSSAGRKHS
thermal stability z-score (lipoamide; [1]): 0.886 | thermal stability z-score (lipoamide; arsenate co-treatment: none): 0.611 | thermal stability z-score (potassium arsenate): 0.803

TFG (UniProt Q92734)
thermal stability z-score (lipoamide; [1]): 0.607 | thermal stability z-score (lipoamide; arsenate co-treatment: none): 0.76 | thermal stability z-score (potassium arsenate): 0.134

POU2F1 (UniProt P14859)
thermal stability z-score (lipoamide; [1]): -0.0121 | thermal stability z-score (lipoamide; arsenate co-treatment: none): -0.303 | thermal stability z-score (potassium arsenate): 0.0127

AFG3L2 (UniProt Q9Y4W6)
thermal stability z-score (lipoamide; [1]): -0.688 | thermal stability z-score (lipoamide; arsenate co-treatment: none): -0.0469 | thermal stability z-score (potassium arsenate): -0.123

GLG1 (UniProt Q92896)
thermal stability z-score (lipoamide; [1]): -1.88 | thermal stability z-score (lipoamide; arsenate co-treatment: none): -1.9 | thermal stability z-score (potassium arsenate): -0.0446
